Measured values from US20230114728A1 (Venatorx Pharmaceuticals, Inc., priority 2019, published 2023).
≈ marks a conversion by molar mass, not a printed value.

What was measured:
Assay type in all cases: cell-based
E. coli ATCC 25922 = experiment: Broth microdilution MIC in CAMHB; conditions: Escherichia coli, ATCC25922; E. coli ATCC 25922; MHB; read-out: Minimum Inhibitory Concentration, E. coli 25922
Method in brief: (§1)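 Per CLSI broth microdilution, colonies were grown 3-5 h at 37° C in cation-adjusted Mueller Hinton broth, then diluted to a starting inoculum of 2-8×10^5 CFU/mL against 2-fold serial compound dilutions. Plates were incubated 16-20 h at 37° C, and MIC was read visually as the lowest concentration with no growth.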

A. baumannii ATCC 19606 = experiment: Broth microdilution MIC in CAMHB; conditions: Acinetobacter baumannii, ATCC19606; MHB; read-out: Minimum Inhibitory Concentration, A. baumannii ATCC 19606
Method in brief: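 CLSI broth microdilution in CAMHB: 2-fold compound dilutions inoculated at 2-8×10^5 CFU/mL from 3-5 h log-phase cultures. Incubated at 37 °C for 16-20 h (Enterobacteriaceae, Pseudomonas); MIC read visually as lowest concentration without growth. Strains include hyper-permeable and efflux-deficient mutants.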

E. coli D22 = experiment: Broth microdilution MIC in CAMHB; conditions: Escherichia coli; E. coli D22 (hyper-permeable); MHB; read-out: Minimum Inhibitory Concentration, E. coli D22
Method in brief: as §1

[1] = tested on: P. aeruginosa (ΔmexAB-oprM); experiment: Broth microdilution MIC in CAMHB; conditions: Pseudomonas aeruginosa, read-out: Minimum Inhibitory Concentration, P. aeruginosa ΔmexAB-OprM
Method in brief: as §1

[2] = tested on: K. pneumoniae SI-117 producing VIM-1; experiment: Broth microdilution MIC in CAMHB; conditions: Klebsiella pneumoniae, read-out: Minimum Inhibitory Concentration, K. pneumoniae SI-117
Method in brief: as §1

P. aeruginosa ATCC 27853 = experiment: Broth microdilution MIC in CAMHB; conditions: Pseudomonas aeruginosa, ATCC27853; MHB; read-out: Minimum Inhibitory Concentration, P. aeruginosa ATCC 27853
Method in brief: as §1

E. coli AG100A = experiment: Broth microdilution MIC in CAMHB; conditions: Escherichia coli, read-out: Minimum Inhibitory Concentration, E. coli AG100A
Method in brief: as §1

E. coli AG100 = experiment: Broth microdilution MIC in CAMHB; conditions: Escherichia coli; E. coli AG100 (wild-type parent); MHB; read-out: Minimum Inhibitory Concentration, E. coli AG100
Method in brief: as §1

E. coli 901C = experiment: Broth microdilution MIC in CAMHB; conditions: Escherichia coli; E. coli 901C (hyper-permeable); MHB; read-out: Minimum Inhibitory Concentration, E. coli 901C
Method in brief: as §1

[3] = tested on: K. pneumoniae UMM producing SHV-5 and KPC-2; experiment: Broth microdilution MIC in CAMHB; conditions: Klebsiella pneumoniae, read-out: Minimum Inhibitory Concentration, K. pneumoniae UMM
Method in brief: as §1

P. aeruginosa ATCC 35151 = experiment: Broth microdilution MIC in CAMHB; conditions: Pseudomonas aeruginosa, ATCC35151; MHB; hyper-permeable strain; read-out: Minimum Inhibitory Concentration, P. aeruginosa ATCC 35151
Method in brief: as §1

[4] = tested on: K. pneumoniae 848844 producing SHV-11 and KPC-2; experiment: Broth microdilution MIC in CAMHB; conditions: Klebsiella pneumoniae, read-out: Minimum Inhibitory Concentration, K. pneumoniae 848844
Method in brief: as §1

N. gonorrhoeae H041 = experiment: Liquid broth MIC in Fastidious broth; conditions: Neisseria gonorrhoeae, H041, read-out: Minimum Inhibitory Concentration, N. gonorrhoeae H041
Method in brief: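 Broth microdilution in Fastidious broth with 2-fold compound series; inoculum from 24 h chocolate agar colonies, 5×10^5 CFU/mL start. Incubated ~24 hours at 36° C, 5% CO2. MIC read visually as lowest concentration giving <10% growth versus full-growth wells; strains carry mosaic PBP2.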

Structure (SMILES)	MIC (E. coli ATCC 25922) [µg/mL]	MIC (A. baumannii ATCC 19606) [µg/mL]	MIC (E. coli D22) [µg/mL]	MIC [1] [µg/mL]	MIC [2] [µg/mL]	MIC (P. aeruginosa ATCC 27853) [µg/mL]	MIC (E. coli AG100A) [µg/mL]	MIC (E. coli AG100) [µg/mL]	MIC (E. coli 901C) [µg/mL]	MIC [3] [µg/mL]	MIC (P. aeruginosa ATCC 35151) [µg/mL]	MIC [4] [µg/mL]	MIC (N. gonorrhoeae H041) [µg/mL]
NC1(CN2CCN(C(=O)NC(C(=O)N[C@H]3Cc4cccc(C(=O)O)c4OB3O)c3cccc(NS(N)(=O)=O)c3)C(=O)C2=O)CC1 (stereo partly drawn) [Example 120, (3R)-3-(2-(4-((1-aminocyclopropyl)methyl)-2,3-dioxopiperazine-1-carboxamido)-2-(3-(sulfamoylamino)phenyl)acetamido)-2-hydroxy-3,4-dihydro-2H-benzo[e][1,2]oxaborinine-8-carboxylic acid]	> 128	> 128	8 to 16 (≈ 12.4 to 24.9 µM)	8 to 16 (≈ 12.4 to 24.9 µM)	> 128	> 128	8 to 16 (≈ 12.4 to 24.9 µM)	> 128	2 to 4 (≈ 3.11 to 6.22 µM)	32 to 64 (≈ 49.7 to 99.5 µM)	0.5 to 1 (≈ 0.777 to 1.55 µM)	> 128	> 64
CCN1CCN(C(=O)N[C@H](C(=O)N[C@H]2Cc3cccc(C(=O)O)c3OB2O)c2ccc(C(=O)O)cc2)C(=O)C1=O (single isomer, unassigned) [Example 123]	> 128	> 128	2 to 4 (≈ 3.62 to 7.24 µM)	8 to 16 (≈ 14.5 to 29 µM)	> 128	> 128	8 to 16 (≈ 14.5 to 29 µM)	32 to 64 (≈ 57.9 to 116 µM)	< 0.25	> 128	0.5 to 1 (≈ 0.905 to 1.81 µM)	> 128	16 to 32 (≈ 29 to 57.9 µM)
NS(=O)(=O)c1cccc(C(NC(=O)N2CCN(CCF)C(=O)C2=O)C(=O)N[C@H]2Cc3cccc(C(=O)O)c3OB2O)c1 (stereo partly drawn) [Example 100, (3R)-3-(2-(4-(2-fluoroethyl)-2,3-dioxopiperazine-1-carboxamido)-2-(3-sulfamoylphenyl)acetamido)-2-hydroxy-3,4-dihydro-2H-benzo[e][1,2]oxaborinine-8-carboxylic acid]	32 to 64 (≈ 52.9 to 106 µM)	> 128	2 to 4 (≈ 3.3 to 6.61 µM)	8 to 16 (≈ 13.2 to 26.4 µM)	32 to 64 (≈ 52.9 to 106 µM)	> 128	2 to 4 (≈ 3.3 to 6.61 µM)	32 to 64 (≈ 52.9 to 106 µM)	< 0.25	32 to 64 (≈ 52.9 to 106 µM)	2 to 4 (≈ 3.3 to 6.61 µM)	32 to 64 (≈ 52.9 to 106 µM)	16 to 32 (≈ 26.4 to 52.9 µM)
CCN1CCN(C(=O)N[C@H](C(=O)N[C@H]2Cc3cccc(C(=O)O)c3OB2O)c2ccc(C(=O)O)c(F)c2)C(=O)C1=O (single isomer, unassigned) [Example 147]	32 to 64 (≈ 56.1 to 112 µM)	> 128	2 to 4 (≈ 3.51 to 7.01 µM)	8 to 16 (≈ 14 to 28.1 µM)	> 128	> 128	2 to 4 (≈ 3.51 to 7.01 µM)	32 to 64 (≈ 56.1 to 112 µM)	< 0.25	32 to 64 (≈ 56.1 to 112 µM)	< 0.25	> 128	1 to 2 (≈ 1.75 to 3.51 µM)
CCN1CCN(C(=O)N[C@@H](C(=O)N[C@H]2Cc3cccc(C(=O)O)c3OB2O)c2ccc(C(=O)O)c(F)c2F)C(=O)C1=O (single isomer, unassigned) [Example 140]	32 to 64 (≈ 54.4 to 109 µM)	> 128	2 to 4 (≈ 3.4 to 6.8 µM)	8 to 16 (≈ 13.6 to 27.2 µM)	> 128	> 128	2 to 4 (≈ 3.4 to 6.8 µM)	32 to 64 (≈ 54.4 to 109 µM)	< 0.25	32 to 64 (≈ 54.4 to 109 µM)	< 0.25	> 128	1 to 2 (≈ 1.7 to 3.4 µM)
NCCN1CCN(C(=O)N[C@H](C(=O)N[C@H]2Cc3ccc(F)c(C(=O)O)c3OB2O)c2c(F)cc(O)cc2F)C(=O)C1=O (single isomer, unassigned) [Example 128]	32 to 64 (≈ 53.9 to 108 µM)	> 128	8 to 16 (≈ 13.5 to 27 µM)	32 to 64 (≈ 53.9 to 108 µM)	> 128	> 128	32 to 64 (≈ 53.9 to 108 µM)	32 to 64 (≈ 53.9 to 108 µM)	8 to 16 (≈ 13.5 to 27 µM)	32 to 64 (≈ 53.9 to 108 µM)	2 to 4 (≈ 3.37 to 6.74 µM)	> 128	> 64
O=C(O)c1cccc2c1OB(O)[C@@H](NC(=O)C(NC(=O)N1CCN(CCF)C(=O)C1=O)c1c(F)cc(O)cc1F)C2 (mixture of isomers) [Example 119, (3R)-3-(2-(2,6-difluoro-4-hydroxyphenyl)-2-(4-(2-fluoroethyl)-2,3-dioxopiperazine-1-carboxamido)acetamido)-2-hydroxy-3,4-dihydro-2H-benzo[e][1,2]oxaborinine-8-carboxylic acid]	8 to 16 (≈ 13.8 to 27.7 µM)	> 128	0.5 to 1 (≈ 0.865 to 1.73 µM)	8 to 16 (≈ 13.8 to 27.7 µM)	32 to 64 (≈ 55.3 to 111 µM)	> 128	0.5 to 1 (≈ 0.865 to 1.73 µM)	8 to 16 (≈ 13.8 to 27.7 µM)	< 0.25	8 to 16 (≈ 13.8 to 27.7 µM)	2 to 4 (≈ 3.46 to 6.92 µM)	32 to 64 (≈ 55.3 to 111 µM)	> 64
CCN1CCN(C(=O)NC(C(=O)N[C@H]2Cc3ccc(F)c(C(=O)O)c3OB2O)c2c(F)cc(O)cc2F)C(=O)C1=O (stereo partly drawn) [Example 130, (3R)-3-(2-(2,6-difluoro-4-hydroxyphenyl)-2-(4-ethyl-2,3-dioxopiperazine-1-carboxamido)acetamido)-7-fluoro-2-hydroxy-3,4-dihydro-2H-benzo[e][1,2]oxaborinine-8-carboxylic acid]	32 to 64 (≈ 55.3 to 111 µM)	> 128	2 to 4 (≈ 3.46 to 6.92 µM)	32 to 64 (≈ 55.3 to 111 µM)	32 to 64 (≈ 55.3 to 111 µM)	> 128	8 to 16 (≈ 13.8 to 27.7 µM)	32 to 64 (≈ 55.3 to 111 µM)	< 0.25	8 to 16 (≈ 13.8 to 27.7 µM)	< 0.25	32 to 64 (≈ 55.3 to 111 µM)	16 to 32 (≈ 27.7 to 55.3 µM)
CCN1CCN(C(=O)N[C@@H](C(=O)N[C@H]2Cc3cccc(C(=O)O)c3OB2O)c2ccc(C(=O)O)cc2Cl)C(=O)C1=O (single isomer, unassigned) [Example 151]	> 128	> 128	2 to 4 (≈ 3.41 to 6.82 µM)	8 to 16 (≈ 13.6 to 27.3 µM)	> 128	> 128	8 to 16 (≈ 13.6 to 27.3 µM)	32 to 64 (≈ 54.5 to 109 µM)	< 0.25	> 128	0.5 to 1 (≈ 0.852 to 1.7 µM)	> 128	4 to 8 (≈ 6.82 to 13.6 µM)
CCN1CCN(C(=O)NC(C(=O)N[C@H]2Cc3cccc(C(=O)O)c3OB2O)c2cc(Cl)c(C(=O)O)cc2F)C(=O)C1=O (stereo partly drawn) [Example 138, (3R)-3-(2-(4-carboxy-5-chloro-2-fluorophenyl)-2-(4-ethyl-2,3-dioxopiperazine-1-carboxamido)acetamido)-2-hydroxy-3,4-dihydro-2H-benzo[e][1,2]oxaborinine-8-carboxylic acid]	32 to 64 (≈ 52.9 to 106 µM)	> 128	2 to 4 (≈ 3.31 to 6.61 µM)	32 to 64 (≈ 52.9 to 106 µM)	> 128	> 128	8 to 16 (≈ 13.2 to 26.5 µM)	32 to 64 (≈ 52.9 to 106 µM)	< 0.25	32 to 64 (≈ 52.9 to 106 µM)	0.5 to 1 (≈ 0.827 to 1.65 µM)	> 128	16 to 32 (≈ 26.5 to 52.9 µM)
CCN1CCN(C(=O)NC(C(=O)N[C@H]2Cc3cccc(C(=O)O)c3OB2O)c2c(F)c(O)cc(O)c2F)C(=O)C1=O (stereo partly drawn) [Example 106, (3R)-3-(2-(2,6-difluoro-3,5-dihydroxyphenyl)-2-(4-ethyl-2,3-dioxopiperazine-1-carboxamido)acetamido)-2-hydroxy-3,4-dihydro-2H-benzo[e][1,2]oxaborinine-8-carboxylic acid]	> 128	> 128	8 to 16 (≈ 13.9 to 27.8 µM)	8 to 16 (≈ 13.9 to 27.8 µM)	> 128	> 128	32 to 64 (≈ 55.5 to 111 µM)	> 128	2 to 4 (≈ 3.47 to 6.94 µM)	> 128	2 to 4 (≈ 3.47 to 6.94 µM)	> 128	> 64
NCCN1CCN(C(=O)N[C@H](C(=O)N[C@H]2Cc3cccc(C(=O)O)c3OB2O)c2cccc(NS(N)(=O)=O)c2)C(=O)C1=O (single isomer, unassigned) [Example 115]	> 128	> 128	8 to 16 (≈ 13 to 25.9 µM)	8 to 16 (≈ 13 to 25.9 µM)	> 128	> 128	8 to 16 (≈ 13 to 25.9 µM)	> 128	2 to 4 (≈ 3.24 to 6.48 µM)	> 128	2 to 4 (≈ 3.24 to 6.48 µM)	> 128	> 64
